Some test systems named below: Candida krusei ATCC 6258; Listeria monocytogenes; Escherichia coli UTI89; Escherichia coli D31; Escherichia coli J2210; Escherichia coli JJ2487; Escherichia coli MC1061; Escherichia coli O157:H7.
Holding throughout (test): ≥ marks a high value that may be exact or a test limit, other limits are often not marked, values filed in µg/mL are converted to µM
Test [1] concerns Candida albicans ATCC 2048.
Test [2] relates to Candida glabrata ATCC 90525.
The subject of test [3] is Candida parapsilosis ATCC 20224.
For test [4], the system named is Candida tropicalis ATCC 20240.
Test [5] concerns Enterococcus faecalis ATCC 29212.
The subject of test [6] is Listeria monocytogenes ATCC 19114.
The test system of test [7] is Listeria monocytogenes ATCC 19115.
Test [8] relates to Listeria monocytogenes ATCC 7644.
The subject of test [9] is Listeria monocytogenes NCTC 18890.
Test [10] concerns Pseudomonas aeruginosa ATCC 15442.
The subject of test [11] is Staphylococcus aureus ATCC 25923.
For test [12], the system named is Staphylococcus aureus ATCC 29213.
Test [13] has as its system Staphylococcus aureus ATCC 6538.
The test system of test [14] is Staphylococcus epidermidis ATCC 35984.
Test [15] concerns Escherichia coli K12 MG1655.
The test system of test [16] is Salmonella enterica subsp. enterica serovar Typhimurium ATCC 14028.
Test [17] deals with Staphylococcus epidermidis.
The test system of test [18] is Klebsiella pneumoniae ATCC 700603.
Test [19] deals with Pseudomonas aeruginosa ATCC 10145.
The subject of test [20] is Staphylococcus aureus ATCC 27660.
In test [21] the test system is Acinetobacter baumannii BCRC 14B0091.
Test [22] deals with Acinetobacter baumannii BCRC 14B0097.
Test [23] concerns Acinetobacter baumannii BCRC 14B0100.
Test [24] concerns Enterococcus faecium BCRC 15B0132.
In test [25] the test system is Escherichia coli BCRC 13B0198.
Test [26] relates to Escherichia coli BCRC 13B0207.
Test [27] relates to Legionella pneumophila Lens.
Test [28] concerns Bacillus subtilis KCTC 3068.
Test [29] deals with Escherichia coli ATCC 25922.
In test [30] the test system is Salmonella typhimurium CMCC 50013.
Test [31] concerns Salmonella enterica subsp. enterica serovar Enteritidis MH91989.
For test [32], the system named is Salmonella typhimurium SL1344.

In brackets after ≈: the same amount, converted by molar mass.

In general, MIC refers to the least concentration at which growth counts as inhibited. Lower therefore signals greater potency. Take `CC(C)C[C@H](NC(=O)[C@H](C)N)C(=O)N[C@@H](CCC(N)=O)C(=O)NCC(=O)N[C@@H](C)C(=O)N[C@@H](CCCCN)C(=O)N[C@@H](CCC(=O)O)C(=O)N[C@@H](CCCN=C(N)N)C(=O)N[C@@H](C)C(=O)N[C@@H](Cc1cnc[nH]1)C(=O)N[C@@H](CCC(N)=O)C(=O)N[C@@H](CCC(N)=O)C(=O)O` [ALQGAKERAHQQ]: the MIC was ≥ 280 µM in test [1]; ≥ 260 µM in [2]; ≥ 270 µM in the test on Candida krusei ATCC 6258; ≥ 270 µM in [3]; ≥ 75 µM in test [4].
With `CC(C)C[C@H](NC(=O)[C@H](C)NC(=O)[C@H](Cc1cnc[nH]1)NC(=O)[C@H](Cc1cnc[nH]1)NC(=O)CNC(=O)[C@H](CC(C)C)NC(=O)[C@H](Cc1cnc[nH]1)NC(=O)[C@H](CO)NC(=O)[C@H](C)N)C(=O)N[C@@H](CC(=O)O)C(=O)N[C@@H](Cc1cnc[nH]1)C(=O)N[C@@H](CC(C)C)C(=O)N[C@@H](CC(C)C)C(=O)N[C@@H](CCCCN)C(=O)O` [ASHLGHHALDHLLK], the MIC is 8070 µM (≈ 12500 µg/mL) in test [5]; ≥ 3230 µM in [6]; ≥ 3230 µM in test [7]; ≥ 3230 µM in [8]; ≥ 3230 µM in test [9]; ≥ 3230 µM in the test on Listeria monocytogenes. For the same molecule, the minimal inhibitory concentration (MIC) in test [10] was ≥ 8070 µM; in [11], 8070 µM (≈ 12500 µg/mL); in test [12], 8070 µM (≈ 12500 µg/mL); in test [13], 8070 µM (≈ 12500 µg/mL); in test [14] it was ≥ 8070 µM.
Consider `CC[C@H](C)[C@H](NC(=O)[C@H](CCCCN)NC(=O)[C@@H](N)CCCCN)C(=O)NCC(=O)N[C@@H](CCC(N)=O)C(=O)N[C@@H](CCCCN)C(=O)N[C@H](C(=O)N[C@@H](CCCCN)C(=O)N[C@@H](CC(N)=O)C(=O)N[C@@H](Cc1ccccc1)C(=O)N[C@@H](Cc1ccccc1)C(=O)N[C@@H](CCC(N)=O)C(=O)N[C@@H](CCCCN)C(=O)N[C@@H](CC(C)C)C(=O)O)[C@@H](C)CC` [KKIGQKIKNFFQKL], for which the MIC was ≥ 50 µM in test [15], ≥ 50 µM against Escherichia coli UTI89, > 50 µM in test [16] and ≥ 50 µM in test [17].
`CC[C@H](C)[C@H](NC(=O)CNC(=O)[C@H](CCCCN)NC(=O)[C@H](Cc1c[nH]c2ccccc12)NC(=O)[C@H](CC(C)C)NC(=O)[C@H](CCCCN)NC(=O)[C@H](CCCCN)NC(=O)[C@H](C)NC(=O)[C@H](CCCCN)NC(=O)[C@H](CCCCN)NC(=O)[C@H](Cc1ccccc1)NC(=O)CNC(=O)[C@H](CCCCN)NC(=O)[C@H](C)NC(=O)[C@H](Cc1ccccc1)NC(=O)[C@@H](NC(=O)[C@H](CCCCN)NC(=O)[C@@H](NC(=O)[C@H](CC(C)C)NC(=O)[C@H](CCCCN)NC(=O)[C@@H](N)CCCCN)[C@@H](C)CC)C(C)C)C(=O)NCC(=O)O` [KKLIKVFAKGFKKAKKLWKGIG]: the MIC amounted to 0.94 µM (≈ 2.37 µg/mL) with Escherichia coli D31, 1.88 µM (≈ 4.73 µg/mL) in [18], 1.88 µM (≈ 4.73 µg/mL) in test [19] and 0.97 µM (≈ 2.44 µg/mL) in [20].
For the molecule `CC(=O)N[C@@H](CCCCN)C(=O)N[C@@H](CCCCN)C(=O)N[C@@H](Cc1c[nH]c2ccccc12)C(=O)N[C@@H](CCCN=C(N)N)C(=O)N[C@@H](CCCCN)C(=O)N[C@@H](Cc1c[nH]c2ccccc12)C(=O)N[C@@H](CC(C)C)C(=O)N[C@@H](C)C(=O)N[C@@H](CCCCN)C(=O)N[C@@H](CCCCN)C(N)=O` [KKWRKWLAKK], the minimum inhibitory concentration (MIC) in [21], in test [22], in [23], in test [24], in test [25] and in [26] was ≥ 46.7 µM each time.
Regarding `CC[C@H](C)[C@H](NC(=O)[C@H](CC(C)C)NC(=O)[C@H](CC(=O)O)NC(=O)[C@@H](NC(=O)[C@@H](NC(=O)[C@H](Cc1ccccc1)NC(=O)[C@H](CCC(N)=O)NC(=O)[C@@H](N)CCSC)[C@@H](C)CC)[C@@H](C)O)C(=O)N[C@@H](CCCCN)C(=O)N[C@@H](CCCCN)C(=O)N[C@@H](C)C(=O)N[C@H](C(=O)N[C@@H](CC(=O)O)C(=O)N[C@H](C(=O)N[C@H](C(=O)N[C@@H](CCCCN)C(=O)NCC(=O)N[C@@H](CC(C)C)C(=O)N[C@@H](Cc1ccccc1)C(=O)NCC(=O)N[C@@H](CC(N)=O)C(=O)N[C@@H](CCCCN)C(=O)O)[C@@H](C)CC)C(C)C)C(C)C` [MQFITDLIKKAVDVIKGLFGNK], in [27], the MIC was 1.26 µM (≈ 3.12 µg/mL).
As for `CC[C@H](C)[C@H](NC(=O)[C@@H](N)CO)C(=O)N[C@@H](CO)C(=O)N[C@@H](CC(C)C)C(=O)N[C@@H](CC(C)C)C(=O)N[C@@H](Cc1ccc(O)cc1)C(=O)NCC(=O)N[C@@H](CCCN=C(N)N)C(=O)N[C@@H](CCCCN)C(=O)N[C@@H](CCCCN)C(=O)N[C@@H](CCCN=C(N)N)C(=O)N[C@@H](CCCN=C(N)N)C(=O)N[C@@H](CCC(N)=O)C(=O)N[C@@H](CCCN=C(N)N)C(=O)N[C@@H](CCCN=C(N)N)C(=O)N[C@@H](CCCN=C(N)N)C(=O)O` [SISLLYGRKKRRQRRR], the minimal inhibitory concentration (MIC) in test [28] worked out at 5.9 µM (≈ 12.2 µg/mL); in test [29], 10.3 µM (≈ 21.4 µg/mL); in test [30], 20.8 µM (≈ 43.1 µg/mL); in test [12] it was 11 µM (≈ 22.8 µg/mL).
As for `CC[C@H](C)[C@H](NC(=O)[C@H](CCCN=C(N)N)NC(=O)[C@H](CCCN=C(N)N)NC(=O)[C@@H]1CCCN1C(=O)[C@@H]1CCCN1C(=O)[C@H](CCCN=C(N)N)NC(=O)[C@@H]1CCCN1C(=O)[C@H](CCCN=C(N)N)NC(=O)[C@@H]1CCCN1C(=O)[C@H](CCCCN)NC(=O)[C@H](Cc1ccc(O)cc1)NC(=O)[C@@H]1CCCN1C(=O)[C@H](CCCCN)NC(=O)[C@H](CCCCN)NC(=O)[C@H](CC(=O)O)NC(=O)[C@@H](N)C(C)C)C(=O)N[C@@H](Cc1ccc(O)cc1)C(=O)N[C@@H](CC(N)=O)C(=O)N[C@@H](CCCN=C(N)N)C(N)=O` [VDKKPYKPRPRPPRRIYNR], the MIC worked out at 0.0821 µM (≈ 0.2 µg/mL) in the test with Escherichia coli J2210; 0.123 µM (≈ 0.3 µg/mL) against Escherichia coli JJ2487; 0.0616 µM (≈ 0.15 µg/mL) in the test on Escherichia coli MC1061; 0.644 µM (≈ 1.57 µg/mL) against Escherichia coli O157:H7; 0.172 µM (≈ 0.42 µg/mL) in test [31]; 0.172 µM (≈ 0.42 µg/mL) in test [32].

(Values after DBAASP.)
